# Source: patent publication US20250313574A1, “SIALIC ACID DERIVATIVES AND METHODS OF USING SAME” (EISAI R&D MANAGEMENT CO., LTD., priority 2022, published 2025)
# pEC50: −log10 of the molar value.
# Experiments:
# [1] = molecular target: Recombinant human CD33 protein (Homo sapiens (Human), UniProt P20138); assay: CD33 competitive binding assay for HTS drug screen (fluorescent multivalent sialic acid probe)
# Procedure, shortened: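 Inhibition was read as reduced retention of a fluorescent multivalent sialic acid complex (final 5 μM neutravidin, 15 μM A-375, 5 μM biotin-4-FITC) on plate-immobilized human CD33. Compound was added first, the probe followed for 30 min at room temperature in PBS with 0.2% Tween-20 and 0.5% BSA, and FITC was measured after a wash.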
# [2] = molecular target: Recombinant Human Siglec-3/CD33 protein (His-CD33) (Homo sapiens (Human), UniProt P20138); assay: Differential scanning fluorimetry (DSF) thermal shift assay; type: binding
# Recombinant Human Siglec-3/CD33 protein (His-CD33), sequence (P20138 18-259): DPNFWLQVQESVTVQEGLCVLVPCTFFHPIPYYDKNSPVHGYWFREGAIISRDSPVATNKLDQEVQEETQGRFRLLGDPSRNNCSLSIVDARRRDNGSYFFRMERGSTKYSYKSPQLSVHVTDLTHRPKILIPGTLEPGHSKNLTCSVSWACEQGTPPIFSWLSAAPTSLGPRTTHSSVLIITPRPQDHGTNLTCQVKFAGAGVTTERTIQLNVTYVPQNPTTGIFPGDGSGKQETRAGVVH
# [3] = difference in thermal melt of CD33 protein (0.5 μM) with 50 μM compound
# [4] = thermal melt shift of 0.5 μM CD33 protein with 50 μM compound
# Recombinant human CD33 protein, sequence (P20138 18-259): as above
Structure (SMILES),pEC50 [1],"DSF (dTmD) [2, 3] [°C]","DSF (dTmD) [2, 4]"
Cc1cc(C(=O)NC[C@@H](O)[C@@H](O)[C@@H]2O[C@@](OC3CCCCC3NC(=O)Cn3cc(Cn4ncc5ccccc5c4=O)nn3)(C(=O)O)C[C@H](O)[C@H]2NC(=O)Cn2cc(C3CCCCC3)nn2)cc(C)c1O (some centres unmarked) [A-331],5.36,4.9,–
CC(=O)N[C@H]1[C@H]([C@H](O)[C@H](O)CNC(=O)c2cccc(Cl)c2)O[C@@](CCN2CCOC[C@@]23CCN(C(=O)OC(C)(C)C)C3)(C(=O)O)C[C@@H]1O [A-182],7.14,–,11.7
CC(=O)N[C@H]1[C@H]([C@H](O)[C@H](O)CNC(=O)c2cc(C)c(O)c(C)c2)O[C@@](C/C=C/c2cccc(CNC(=O)C3(C)COC3)c2)(C(=O)O)C[C@@H]1O [A-244],5.02,0.8,–
Cc1cc2cc(C)c1OCc1cccc(c1)[C@H](NC(=O)C1CCCOC1)CCC/C=C/C[C@]1(C(=O)O)C[C@H](O)[C@@H](NC(=O)Cn3cc(C4CCCCC4)nn3)[C@@H](O1)[C@H](O)[C@H](O)CNC2=O (some centres unmarked) [A-356],5.82,4.8,–
COC(=O)[C@@]1(CCN2CCOC[C@@]23CCN(C(=O)OC(C)(C)C)C3)C[C@H](O)[C@@H](NC(C)=O)[C@H]([C@H](O)[C@H](O)CNC(=O)c2cc(C)c(O)c(C)c2)O1 [A-361],4.31,−0.3,–
CC(=O)N[C@H]1[C@H]([C@H](O)[C@H](O)CNC(=O)c2cc(C)c(O)c(C)c2)O[C@@](CCN2C[C@H](C)OC[C@@]23CCN(C(=O)OC(C)(C)C)C3)(C(=O)O)C[C@@H]1O [A-005],8.15,–,14.1
CC(=O)N[C@H]1[C@H]([C@H](O)[C@H](O)CNC(=O)c2cc(C)c(O)c(C)c2)O[C@@](CCN2CCOC[C@@]23CCN(C(=O)N[C@H](C)c2ccccc2)C3)(C(=O)O)C[C@@H]1O [A-047],7.66,–,12.9
CC(=O)NC1[C@H]([C@H](O)[C@H](O)CNC(=O)c2cc(C)c(O)c(C)c2)O[C@@](CC(=O)N2CCOC[C@@]23CCN(C(=O)NC(C)(C)C)C3)(C(=O)O)C[C@@H]1O (some centres unmarked) [A-223],6.91,8.9,–
CC(=O)N[C@H]1[C@H]([C@H](O)[C@H](O)CNC(=O)c2cc(C)c(O)c(C)c2)O[C@@](C/C=C/c2cccc(CNC(=O)c3ccc4[nH]c5c(c4c3)CCC(=O)N5C)c2)(C(=O)O)C[C@@H]1O [A-254],6.71,9.2,–
Cc1cc2cc(C)c1OCCOC[C@@H](NC(=O)C1CCCOC1)COCCCC[C@]1(C(=O)O)C[C@H](O)[C@@H](NC(=O)Cn3cc(C4CCCCC4)nn3)[C@@H](O1)[C@H](O)[C@H](O)CNC2=O (some centres unmarked) [A-340],5.46,4.22,–
CC(=O)N[C@H]1[C@H]([C@H](O)[C@H](O)CNC(=O)c2cc(C)c(O)c(C)c2)O[C@@](CC2OC(C)(C)O[C@H]2c2cccc(NC(=O)C(=O)[C@H](C)c3cc(C4CC4)no3)c2)(C(=O)O)C[C@@H]1O (some centres unmarked) [A-305],6.10,5.4,–
CC(=O)N[C@H]1[C@H]([C@H](O)[C@H](O)CNC(=O)c2cc(C)c(O)c(C)c2)O[C@@](CCN2CCOC[C@@]23CCN(C(=O)C2CCCC2)C3)(C(=O)O)C[C@@H]1O [A-060],7.19,–,11.2
CC(=O)N[C@H]1[C@H]([C@H](O)[C@H](O)CNC(=O)c2cc(C)c(O)c(C)c2)O[C@@](CCN2CCCC[C@@]23CN(C(=O)OC(C)(C)C)C[C@H]3CO)(C(=O)O)C[C@@H]1O [A-029],5.01,–,2.1
Cc1cc2cc(C)c1OCCOC[C@@H](NC(=O)C1CCCOC1)COC/C=C/C[C@]1(C(=O)O)C[C@H](O)[C@@H](NC(=O)Cn3cc(C4CCCCC4)nn3)[C@@H](O1)[C@H](O)[C@H](O)CNC2=O (some centres unmarked) [A-341],5.00,2.7,–
CC(=O)N[C@H]1[C@H]([C@H](O)[C@H](O)CNC(=O)c2ccc(-c3ncn[nH]3)cc2)O[C@@](CCN2CCOC[C@@]23CCN(C(=O)OC(C)(C)C)C3)(C(=O)O)C[C@@H]1O [A-142],6.47,–,6.4
CC(=O)N[C@H]1[C@H]([C@H](O)[C@H](O)CNC(=O)c2cc(C)c(=O)n(C)c2)O[C@@](CCN2CCOC[C@@]23CCN(C(=O)OC(C)(C)C)C3)(C(=O)O)C[C@@H]1O [A-191],6.79,–,9.4
CC(=O)N[C@H]1[C@H]([C@H](O)[C@H](O)CNC(=O)c2cc(Cl)c(O)c(Cl)c2)O[C@@](CC2OC(C)(C)O[C@H]2c2cccc(C(=O)NCc3ccccc3)c2)(C(=O)O)C[C@@H]1O (some centres unmarked) [A-321],6.66,7.2,–
CC(=O)N[C@H]1[C@H]([C@H](O)[C@H](O)CNC(=O)c2cc(C)c(O)c(C)c2)O[C@@](C[C@@H]2COC[C@]3(CCN(C(=O)OC(C)(C)C)C3)N2)(C(=O)O)C[C@@H]1O [A-229],7.66,13.0,–
CC(=O)N[C@H]1[C@H]([C@H](O)[C@H](O)CNC(=O)c2c[nH]nc2C(F)(F)F)O[C@@](CCN2CCOC[C@@]23CCN(C(=O)OC(C)(C)C)C3)(C(=O)O)C[C@@H]1O [A-175],5.39,–,4.6

Structure (SMILES),pEC50 [1],"DSF (dTmD) [2, 3] [°C]","DSF (dTmD) [2, 4]"
COc1cc(C(=O)NC[C@@H](O)[C@@H](O)[C@@H]2O[C@@](CCN3CCOC[C@@]34CCN(C(=O)OC(C)(C)C)C4)(C(=O)O)C[C@H](O)[C@H]2NC(C)=O)ccc1C#N [A-165],5.94,–,5.7
Cc1cc2cc(C)c1OCCCNC(=O)[C@H](C)COCCCC[C@]1(C(=O)O)C[C@H](O)[C@@H](NC(=O)Cn3cc(C4CCCCC4)nn3)[C@@H](O1)[C@H](O)[C@H](O)CNC2=O [A-359],4.22,1.1,–
Cc1cc2cc(C)c1OCCNC(=O)CCCCCCCC[C@]1(C(=O)O)C[C@H](O)[C@@H](NC(=O)Cn3cc(C4CCCCC4)nn3)[C@@H](O1)[C@H](O)[C@H](O)CNC2=O [A-347],4.72,3.6,–
CC(=O)N[C@H]1[C@H]2O[C@](C(=O)O)(C/C=C/c3cccc(c3)[C@@H](NC(=O)C3CCCOC3)CCCCc3cc(cc(Cl)c3O)C(=O)NC[C@@H](O)[C@H]2O)C[C@@H]1O (some centres unmarked) [A-353],4.72,3.6,–
Cc1cc(C(=O)NC[C@@H](O)[C@@H](O)[C@@H]2O[C@@](C/C=C/c3ccccc3)(C(=O)O)C[C@H](O)[C@H]2NC(=O)Cn2cc(C3CCCCC3)nn2)cc(C)c1O [A-283],3.99,2.1,–
CC(=O)N[C@H]1[C@H]([C@H](O)[C@H](O)CNC(=O)c2cc(C)c(F)c(C)c2)O[C@@](CCN2CCOC[C@@]23CCN(C(=O)OC(C)(C)C)C3)(C(=O)O)C[C@@H]1O [A-192],7.33,–,12.1
CC(=O)N[C@H]1[C@H]2O[C@](C(=O)O)(C/C=C/COC[C@@H](NC(=O)OC(C)(C)C)COCCCOc3c(C)cc(cc3C)C(=O)NC[C@@H](O)[C@H]2O)C[C@@H]1O [A-343],5.18,4.6,–
CC(=O)N[C@H]1[C@H]([C@H](O)[C@H](O)CNC(=O)c2cc(C)c(O)c(C)c2)O[C@@](CCN2CCCC23CN(C(=O)OC(C)(C)C)C3)(C(=O)O)C[C@@H]1O [A-017],5.81,–,1.2
CC(=O)N[C@H]1[C@H]([C@H](O)[C@H](O)CNC(=O)c2cc(C)n(C)n2)O[C@@](CCN2CCOC[C@@]23CCN(C(=O)OC(C)(C)C)C3)(C(=O)O)C[C@@H]1O [A-154],6.86,–,9.3
Cc1cc(C(=O)NC[C@@H](O)[C@@H](O)[C@@H]2O[C@@](OC3CCCCC3NC(=O)CN(C)C(=O)OCc3ccccc3)(C(=O)O)C[C@H](O)[C@H]2NC(=O)Cn2cc(C3CCCCC3)nn2)cc(C)c1O (some centres unmarked) [A-325],4.88,3.3,–
CC(=O)N[C@H]1[C@H]([C@H](O)[C@H](O)CNC(=O)c2cc(C)c(O)c(C)c2)O[C@](CO)(CCN2CCOC[C@@]23CCN(C(=O)OC(C)(C)C)C3)C[C@@H]1O [A-360],< 4.00,−0.3,–
CC(=O)N[C@H]1[C@H]([C@H](O)[C@H](O)CNC(=O)c2ccc(C)c(F)c2)O[C@@](CCN2CCOC[C@@]23CCN(C(=O)OC(C)(C)C)C3)(C(=O)O)C[C@@H]1O [A-149],6.88,–,10.7
CC(=O)N[C@H]1[C@H]([C@H](O)[C@H](O)CNC(=O)c2cc(C)c(O)c(C)c2)O[C@@](C/C=C/c2cccc(CNC(=O)c3ccc4[nH]c(C(C)(C)CO)cc4c3)c2)(C(=O)O)C[C@@H]1O [A-249],6.65,8.1,–
C=C[C@H]1CN(C(=O)OC(C)(C)C)C[C@@]1(C)NCC[C@]1(C(=O)O)C[C@H](O)[C@@H](NC(C)=O)[C@H]([C@H](O)[C@H](O)CNC(=O)c2cc(C)c(O)c(C)c2)O1 [A-034],6.06,–,6.7
CC(=O)N[C@H]1[C@H]([C@H](O)[C@H](O)CNC(=O)c2cc(C)c3[nH]c(CO)cc3c2)O[C@@](CCN2CCOC[C@@]23CCN(C(=O)OC(C)(C)C)C3)(C(=O)O)C[C@@H]1O [A-134],7.85,–,15.8
Cc1cc(C(=O)NC[C@@H](O)[C@@H](O)[C@@H]2O[C@@](C/C=C/c3cccc(CNC(=O)c4ccn(C)c(=O)c4)c3)(C(=O)O)C[C@H](O)[C@H]2NC(=O)Cn2cc(C3CCCCC3)nn2)cc(C)c1O [A-273],5.00,5.4,–
CC(=O)N[C@H]1[C@H]([C@H](O)[C@H](O)CNC(=O)c2cc(C)c(O)c(C)c2)O[C@@](CCN2CCOC[C@@]23CCN(C(=O)N2CCCC2)C3)(C(=O)O)C[C@@H]1O [A-062],6.08,–,7.2
Cc1cc(C(=O)NC[C@@H](O)[C@@H](O)[C@@H]2O[C@@](C/C=C/c3cccc(CNC(=O)c4cn[nH]c4)c3)(C(=O)O)C[C@H](O)[C@H]2NC(=O)Cn2cc(C3CCCCC3)nn2)cc(C)c1O [A-277],4.99,4.3,–
